The text below walks through data of ChEMBL document CHEMBL1201862, “PubChem BioAssay data set” (2004).

Among the test systems are SK-MEL-2; A549; HOP-62; UACC-257; SW-620; IGROV-1; SK-MEL-5; T47D; SF-268; HL-60; MDA-MB-231; MDA-N; RPMI-8226; MDA-MB-435; NCI-H522; TK-10; PC-3; COLO 205; SNB-75; SK-OV-3.
What all share (test): growth of human tumour cells (NCI), 48 h

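Dose response: 5 concentrations. Exposure: 48 h. Format: 96-well plates. Endpoint: linear interpolation; highest concentration if not reached. GI50 = concentration required for 50% inhibition of growth.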 The source made the active and inactive calls. Cut-off read from the data, not from the text of the source: active = GI50 up to about 1.1 µM and inactive = higher.

As for `CN(C)CCn1c(=O)c2ccc(NCCCN(C)CCCNc3ccc4c(=O)n(CCN(C)C)c(=O)n5c6ccc(O)cc6c(=O)c3c45)c3c(=O)c4cc(O)ccc4n(c1=O)c23`, the GI50 with SK-MEL-2 was 0.0335 µM (active); in the test with A549 it was < 0.01 µM (active); in the test with HOP-62 it was < 0.032 µM (active); with UACC-257, 0.181 µM (active); with SW-620 it was < 0.01 µM (active); with IGROV-1, < 0.01 µM (active). In addition, the GI50 is < 0.01 µM (active) with SK-MEL-5; 0.0624 µM (active) in the test on T47D; 0.0481 µM (active) with SF-268; 0.0342 µM (active) with HL-60; < 0.0244 µM (active) with MDA-MB-231; < 0.0337 µM (active) with MDA-N. The GI50 was < 0.01 µM (active) in the test with RPMI-8226; < 0.01 µM (active) in the test with MDA-MB-435; < 0.01 µM (active) in the test on NCI-H522; < 0.0126 µM (active) in the test with TK-10; < 0.01 µM (active) in the test on PC-3; < 0.01 µM (active) in the test with COLO 205. The GI50 with SNB-75 is < 0.01 µM (active).

Turning to `Cc1ccc2c(c1C)CC1(Cc3ccc(C)c(C)c3C1=O)C2=O` (centres undefined), the GI50 is > 100 µM (inactive) with SK-MEL-2; 35.7 µM (inactive) with A549; > 100 µM (inactive) in the test on UACC-257; > 100 µM (inactive) with SW-620; 21.7 µM (inactive) with IGROV-1; 76.9 µM (inactive) with SK-MEL-5. Moreover, the GI50 with T47D was > 100 µM (inactive); with SF-268, > 100 µM (inactive); in the test with HL-60 it was 94.6 µM (inactive); in the test on MDA-MB-231, 30.8 µM (inactive); in the test on MDA-N, > 100 µM (inactive); with RPMI-8226 it was > 100 µM (inactive). For the same molecule, the GI50 was > 100 µM (inactive) with MDA-MB-435; > 100 µM (inactive) in the test with NCI-H522; 29.7 µM (inactive) with TK-10; > 100 µM (inactive) with PC-3; > 100 µM (inactive) in the test with COLO 205; 67.6 µM (inactive) with SNB-75.

`O=CN1CCN(C(=O)c2cc(Cl)cc(Cl)c2)C1=S`: the GI50 in the test with SK-OV-3 was 17.5 µM (inactive); in the test with SK-MEL-2, 16.9 µM (inactive); in the test on A549 it was 20.8 µM (inactive); in the test on HOP-62, 15.2 µM (inactive); with UACC-257 it was 17.4 µM (inactive); with SW-620, 19 µM (inactive). The GI50 in the test on IGROV-1 is 18.5 µM (inactive); with T47D, 10.7 µM (inactive); in the test with SF-268 it was 16.1 µM (inactive); with HL-60, 10.3 µM (inactive); with MDA-MB-231, 15.6 µM (inactive); in the test with MDA-N it was 18.8 µM (inactive). The GI50 with RPMI-8226 was 2.44 µM (inactive); in the test with MDA-MB-435, 14.2 µM (inactive); with NCI-H522, 3.5 µM (inactive); in the test on TK-10 it was 15.3 µM (inactive); in the test with PC-3 it was 16.6 µM (inactive); with COLO 205, 17.1 µM (inactive). Also, the GI50 in the test on SNB-75 is 13.3 µM (inactive).

In the case of `OC1CC2CCCN(CCc3c1[nH]c1ccccc31)C2` (centres undefined), the GI50 in the test with SK-OV-3 was > 100 µM (inactive); with SK-MEL-2, > 100 µM (inactive); in the test with A549, > 100 µM (inactive); in the test with UACC-257 it was 67.6 µM (inactive); with SW-620 it was > 100 µM (inactive); in the test on SK-MEL-5 it was 47.3 µM (inactive). Moreover, the GI50 in the test on T47D was > 100 µM (inactive); in the test on SF-268 it was > 100 µM (inactive); in the test with HL-60 it was > 100 µM (inactive); in the test on MDA-MB-231, 89.3 µM (inactive); with MDA-N it was > 100 µM (inactive); in the test on RPMI-8226, > 100 µM (inactive). Further, the GI50 in the test on MDA-MB-435, with NCI-H522, in the test on TK-10, with PC-3, in the test on COLO 205 and with SNB-75 was > 100 µM (inactive) in each case.
